The values that follow come from patent publication US4791118A, “Quinolonecarboxylic acid derivatives and their preparation” (Kyorin Pharmaceutical Co., Ltd., priority 1985, dated 1988).

In one assay the test system is gram-positive bacteria. The note with it: cited from earlier work.
The next assay deals with gram-negative bacteria. The conditions noted are these: than that of the prior compounds (e.g. norfloxacin, ciprofloxacin); cited from earlier work.
Assay [1] concerns Acinetobacter anitratus IID 876. Kind of assay: MIC, aerobic bacteria. In kind it is cell-based. The note with it: Acinetobacter calcoaceticus, IID876, Gram -, 10^6 cells/ml. The text has this: (§1) | Organism (10^6 cells/ml)
The test system of assay [2] is Citrobacter freundii IID 976. Briefly: MIC, aerobic bacteria. It counts as cell-based. The conditions noted are these: IID976, Gram -, 10^6 cells/ml.
Source text: as §1

In the next assay the test system is E. coli ATCC 10536. Kind of assay: MIC, aerobic bacteria. In kind it is cell-based. The conditions noted are these: Escherichia coli, ATCC10536, Gram -, 10^6 cells/ml.
Source text: as §1

Assay [3] relates to Escherichia coli NIHJ JC-2. Kind of assay: MIC, aerobic bacteria. It counts as cell-based. The conditions noted are these: NIHJJC2, Gram -, 10^6 cells/ml.
Source text: as §1

In assay [4] the test system is Klebsiella pneumoniae KY(GN)6445. Kind of assay: MIC, aerobic bacteria. The note with it: Gram -, 10^6 cells/ml. In kind it is cell-based.
Source text: as §1

In assay [5] the test system is Morganella morganii IID 602. Briefly: MIC, aerobic bacteria. It counts as cell-based. The conditions noted are these: IID602, Gram -, 10^6 cells/ml.
Source text: as §1

In the next assay the test system is P. mirabilis IID 992. Kind of assay: MIC, aerobic bacteria. It counts as cell-based. The note with it: Proteus mirabilis, IID992, Gram -, 10^6 cells/ml.
Source text: as §1

The subject of assay [6] is Proteus vulgaris IFO 3167. Kind of assay: MIC, aerobic bacteria. In kind it is cell-based. The conditions noted are these: IFO3167, Gram -, 10^6 cells/ml.
Source text: as §1

Assay [7] deals with S. aureus IID 670 (Terajima). Kind of assay: MIC, aerobic bacteria. It counts as cell-based. The note with it: Staphylococcus aureus, IID670, Gram +, 10^6 cells/ml.
Source text: as §1

The subject of another assay is S. epidermidis IID 866. Briefly: MIC, aerobic bacteria. In kind it is cell-based. The note with it: Staphylococcus epidermidis, IID866, Gram +, 10^6 cells/ml.
Source text: as §1

The test system of assay [8] is Serratia marcescens IID 618. Briefly: MIC, aerobic bacteria. It counts as cell-based. The note with it: IID618, Gram -, 10^6 cells/ml.
Source text: as §1

For the next assay, the system named is B. distasonis 8503. Briefly: MIC, anaerobic bacteria. In kind it is cell-based. The conditions noted are these: Parabacteroides distasonis, Gram -, 10^6 cells/ml.
Source text: as §1

The subject of the next assay is B. fragilis 0558. Kind of assay: MIC, anaerobic bacteria. The conditions noted are these: Bacteroides fragilis, Gram -, 10^6 cells/ml. It counts as cell-based.
Source text: as §1

The subject of another assay is B. fragilis 25285. Kind of assay: MIC, anaerobic bacteria. In kind it is cell-based. The note with it: Bacteroides fragilis, Gram -, 10^6 cells/ml.
Source text: as §1

The subject of the next assay is B. vulgatus KYA 29327. Briefly: MIC, anaerobic bacteria. In kind it is cell-based. The note with it: Phocaeicola vulgatus, KYA29327, Gram -, 10^6 cells/ml.
Source text: as §1

The subject of assay [9] is Bacteroides fragilis GM 7000. Briefly: MIC, anaerobic bacteria. In kind it is cell-based. The note with it: GM7000, Gram -, 10^6 cells/ml.
Source text: as §1

The subject of assay [10] is Fusobacterium mortiferum 4249. Kind of assay: MIC, anaerobic bacteria. The note with it: Gram -, 10^6 cells/ml. In kind it is cell-based.
Source text: as §1

Another assay concerns Pst. micros UPI 5464-1. Kind of assay: MIC, anaerobic bacteria. In kind it is cell-based. The conditions noted are these: Parvimonas micra, UPI54641, Gram +, 10^6 cells/ml.
Source text: as §1

In assay [11] the test system is Veillonella parvula KYA 10790. Briefly: MIC, anaerobic bacteria. In kind it is cell-based. The conditions noted are these: KYA10790, Gram -, 10^6 cells/ml.
Source text: as §1

In assay [12] the test system is Pseudomonas aeruginosa V-1. Kind of assay: MIC, aerobic bacteria. The note with it: V1.
The test system of assay [13] is Alcaligenes faecalis 0114002. Briefly: MIC, aerobic bacteria.
Assay [14] has as its system Eubacterium limosum KYA 8486. Kind of assay: MIC, anaerobic bacteria. The conditions noted are these: KYA8486.
Another assay concerns C. ramosum. Kind of assay: MIC, anaerobic bacteria. The note with it: Thomasclavelia ramosa.
Assay [15] has as its system Bacillus subtilis PCI 219. Briefly: microbe, parasite or virus in culture. The note with it: PCI219.
For assay [16], the system named is Staphylococcus aureus 209 P. Kind of assay: microbe, parasite or virus in culture.
Another assay relates to S. aureus Smith. Briefly: microbe, parasite or virus in culture. The note with it: Staphylococcus aureus.
A further assay relates to K. pneumoniae 1-220S. Kind of assay: microbe, parasite or virus in culture. The conditions noted are these: Klebsiella pneumoniae, 1220S.
Assay [17] relates to Salmonella enteritidis IID 604. Briefly: microbe, parasite or virus in culture. The note with it: Salmonella enterica.
Assay [18] has as its system Yersinia enterocolitica IID 981. Kind of assay: microbe, parasite or virus in culture. The note with it: IID981.

Converted amounts (≈) assume the structure as drawn. Read-outs that look alike come from different tables or passages of the source.

As to `CCNCC1CCN(c2c(F)cc3c(=O)c(C(=O)O)cn(CC)c3c2F)C1` (centres unmarked) [CI-934], in the assay on gram-positive bacteria (prior drugs, e.g. CI-934), the “activity against gram-positive bacteria” value is on record as “relatively strong activity”. For the same molecule, the “activity against gram-negative bacteria” value with gram-negative bacteria is given as “weaker activity”.

With `O=C(O)c1cn(C2CC2)c2cc(N3CCNCC3)c(F)cc2c1=O` [CPFX, ciprofloxacin, reference compound], the MIC is 0.2 µg/mL (≈ 0.604 µM) in assay [1]; 0.025 µg/mL (≈ 0.0754 µM) in [2]; 0.025 µg/mL (≈ 0.0754 µM) against E. coli ATCC 10536; at most 0.0063 µg/mL in assay [3]; 0.025 µg/mL (≈ 0.0754 µM) in [4]; 0.05 µg/mL (≈ 0.151 µM) in assay [5]. The MIC with P. mirabilis IID 992 turned out to be 0.025 µg/mL (≈ 0.0754 µM); in assay [6], 0.025 µg/mL (≈ 0.0754 µM); in assay [7], 0.1 µg/mL (≈ 0.302 µM); with S. epidermidis IID 866, 0.1 µg/mL (≈ 0.302 µM); in [8] it was 0.05 µg/mL (≈ 0.151 µM); in the assay on B. distasonis 8503, 6.25 µg/mL (≈ 18.9 µM). Further, the MIC against B. fragilis 0558 is 3.13 µg/mL (≈ 9.45 µM); against B. fragilis 25285 it was 6.25 µg/mL (≈ 18.9 µM); in the assay on B. vulgatus KYA 29327, 25 µg/mL (≈ 75.4 µM); in assay [9] it was 6.25 µg/mL (≈ 18.9 µM); in assay [10], 3.13 µg/mL (≈ 9.45 µM); in the assay with Pst. micros UPI 5464-1 it was 0.2 µg/mL (≈ 0.604 µM). For the same molecule, the MIC in assay [11] is 0.2 µg/mL (≈ 0.604 µM); in [12] it was 0.05 µg/mL (≈ 0.151 µM); in [13], 0.2 µg/mL (≈ 0.604 µM); in assay [14], 3.13 µg/mL (≈ 9.45 µM); with C. ramosum it was 6.25 µg/mL (≈ 18.9 µM); in [15], 0.05 µg/mL (≈ 0.151 µM). Also, the MIC stood at 0.2 µg/mL (≈ 0.604 µM) in [16]; 0.2 µg/mL (≈ 0.604 µM) against S. aureus Smith; 0.05 µg/mL (≈ 0.151 µM) against K. pneumoniae 1-220S; 0.025 µg/mL (≈ 0.0754 µM) in assay [17]; 0.05 µg/mL (≈ 0.151 µM) in [18].

As to `CCn1cc(C(=O)O)c(=O)c2cc(F)c(N3CCNCC3)cc21` [norfloxacin], the “activity against gram-positive bacteria” value with gram-positive bacteria (compared with gram-negative bacteria) is listed as “fairly less than that against gram-negative bacteria”.
